From US20230397607A1, “COMPOSITIONS COMPRISING MEFENTRIFLUCONAZOLE” (BASF AGRO B.V., priority 2020, published 2023)
Read-outs that look alike come from different tables or passages of the source.

Assays:
[1] = system: Septoria tritici; conditions: SEPTTR, single active, 7 days after inoculation
Description: Activity Against Leaf Blotch on Wheat Caused by Septoria tritici (SEPTTR)
The stock solutions were mixed according to the ratio, pipetted onto a micro titer plate (MTP) and diluted with water to the stated concentrations. A spore suspension of Septoria tritici in an aqueous biomalt or yeast-bactopeptone-glycerine or DOB solution was then added. The plates were placed in a water vapor-saturated chamber at a temperature of 18° C. Using an absorption photometer, the MTPs were measured at 405 nm 7 days after the inoculation.
An efficacy of 0 means that the growth level of the pathogens corresponds to that of the untreated control; an efficacy of 100 means that the pathogens were not growing.

[2] = system: Qoi resistant isolate of Pyrenophora teres; test: Microtiter test: activity against net blotch Pyrenophora teres on barley (PYRNTE); format: cell-based; conditions: single active, 7 days after inoculation
Text: 2. Activity Against Net Blotch Pyrenophora teres on Barley in the Microtiter Test (PYRNTE)
These percentages were converted into efficacies.

## COC(=O)N(OC)c1ccccc1COc1ccn(-c2ccc(Cl)cc2)n1 [pyraclostrobin (A.1.14), pyraclostrobin]
[1]; 0.001 ppm
  Observed efficacy: 9%

## CC(O)(Cn1cncn1)c1ccc(Oc2ccc(Cl)cc2)cc1C(F)(F)F (stereo not drawn) [compound I, 2-[4-(4-chlorophenoxy)-2-(trifluoromethyl)phenyl]-1-(1,2,4-triazol-1-yl) propan-2-ol]
[1]; 0.001 ppm
  Observed efficacy: 7%
[1]; 0.004 ppm
  Observed efficacy: 69%
[2]; 0.00025 ppm
  Observed efficacy: 0%
[2]; 0.001 ppm
  Observed efficacy: 0%
[2]; 0.004 ppm
  Observed efficacy: 0%

## CO/C=C(/C(=O)OC)c1ccccc1Oc1cc(Oc2ccccc2C#N)ncn1 [azoxystrobin (A.1.1), azoxystrobin]
[1]; 0.004 ppm
  Observed efficacy: 7%

## CC(C)c1ccc(Cl)cc1CN(C(=O)c1c(C(F)F)nn(C)c1F)C1CC1 [isoflucypram (A.3.26), isoflucypram]
[1]; 0.063 ppm
  Observed efficacy: 37%

## CC1CC(C)(C)c2cccc(NC(=O)c3cn(C)nc3C(F)F)c21 (stereo in doubt) [compound II, 3-(difluoromethyl)-N-[(3R)-2,3-dihydro-1,1,3-trimethyl-1H-inden-4-yl]-1-methyl-1H-pyrazole-4-carboxamide]
[1]; 0.016 ppm
  Observed efficacy: 0%
[1]; 0.063 ppm
  Observed efficacy: 17%
[2]; 0.004 ppm
  Observed efficacy: 0%
[2]; 0.016 ppm
  Observed efficacy: 10%
[2]; 0.063 ppm
  Observed efficacy: 37%

## CON(C(=O)c1cn(C)nc1C(F)F)C(C)Cc1c(Cl)cc(Cl)cc1Cl (stereo not drawn) [pydiflumetofen (A.3.17), pydiflumetofen]
[2]; 0.063 ppm
  Observed efficacy: 10%

## Cn1cc(C(=O)Nc2ccccc2-c2cc(F)c(F)c(F)c2)c(C(F)F)n1 [fluxapyroxad (A.3.9), fluxapyroxad]
[2]; 0.004 ppm
  Observed efficacy: 0%
